Earlier results, collected in patent publication US8871945B2, “Process for preparation of rufinamide” (priority 2010, dated 2014).
pEC50: −log10 of the molar value.

Assays:
sodium channels [1] = details: Rufinamide ≧1 μM; after a prolonged prepulse; cultured cortical neurons
sodium channels [2] = details: cultured cortical neurons; read-out: EC50 for limiting sustained repetitive firing of sodium-dependent action potentials

pEC50 (sodium channels [2]): 5.42
Structure (SMILES): NC(=O)c1cn(Cc2c(F)cccc2F)nn1 [Rufinamide, 1-(2,6-difluorobenzyl)-1H-1,2,3-triazole-4-carboxamide]
sodium channel recovery from inactivation (sodium channels [1]): significantly slowed
